Results taken from the supplement of paper PMC10307832.

Assays:
Assay in all cases: relative viability (nuclei count vs DMSO), 5 days (fraction); higher = more cells survive
[1] = compound: CC(C)C[C@H](NC(=O)[C@H](CCc1ccccc1)NC(=O)CN1CCOCC1)C(=O)N[C@@H](Cc1ccccc1)C(=O)N[C@@H](CC(C)C)C(=O)[C@@]1(C)CO1 [Carfilzomib] + CS(=O)(=O)CCNCc1ccc(-c2ccc3ncnc(Nc4ccc(OCc5cccc(F)c5)c(Cl)c4)c3c2)o1 [Lapatinib] (partner 2 µM)
Summary of the method: (§1)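 After 5 days of treatment, lung cancer cells in 1536-well plates were fixed and stained in a single step (final 0.05% Triton X-100, 1% formaldehyde, 1 ug/ml Hoechst) and their nuclei counted on 4× images. Treatment had been applied by pin tool the day after seeding as one drug alone or as a fixed anchor-drug dose with five library-drug doses (not always all listed) in √10 steps. Relative viability is the nuclei count of treated wells divided by that of vehicle wells, and values are medians of duplicate plates.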

[2] = compound: O=C(c1cc(Cc2n[nH]c(=O)c3ccccc23)ccc1F)N1CCN(C(=O)C2CC2)CC1 [Olaparib] + N=C(N)NC(=N)NCCc1ccccc1 [Phenformin] (partner 250 µM)
Summary of the method: as §1

[3] = compound: CC(C)C[C@H](NC(=O)[C@H](CCc1ccccc1)NC(=O)CN1CCOCC1)C(=O)N[C@@H](Cc1ccccc1)C(=O)N[C@@H](CC(C)C)C(=O)[C@@]1(C)CO1 [Carfilzomib] + CC(=O)Nc1cccc(-n2c(=O)n(C3CC3)c(=O)c3c(Nc4ccc(I)cc4F)n(C)c(=O)c(C)c32)c1 [Trametinib] (partner 0.02 µM)
Summary of the method: as §1

[4] = compound: O=C(c1cc(Cc2n[nH]c(=O)c3ccccc23)ccc1F)N1CCN(C(=O)C2CC2)CC1 [Olaparib] + CC(=O)c1c(C)c2cnc(Nc3ccc(N4CCNCC4)cn3)nc2n(C2CCCC2)c1=O [Palbociclib] (partner 0.5 µM)
Summary of the method: as §1

Row | Cell Line | relative viability ([1]; first compound 0.001 µM) | relative viability ([1]; first compound 0.003162 µM) | relative viability ([1]; first compound 0.01 µM) | relative viability ([1]; first compound 0.03162 µM) | relative viability ([1]; first compound 0.1 µM) | relative viability ([2]; first compound 0.08 µM) | relative viability ([2]; first compound 0.253 µM) | relative viability ([2]; first compound 2.53 µM) | relative viability ([2]; first compound 8 µM) | relative viability ([3]; first compound 0.001 µM) | relative viability ([3]; first compound 0.003162 µM) | relative viability ([3]; first compound 0.01 µM) | relative viability ([3]; first compound 0.03162 µM) | relative viability ([3]; first compound 0.1 µM) | relative viability ([4]; first compound 0.08 µM) | relative viability ([4]; first compound 0.253 µM) | relative viability ([4]; first compound 2.53 µM) | relative viability ([4]; first compound 8 µM)
1 | 201T | 1.02 | 0.961 | 1.05 | 1.04 | 0.88 | 0.396 | 0.465 | 0.481 | 0.43 | 0.712 | 0.705 | 0.718 | 0.734 | 0.679 | 0.392 | 0.323 | 0.388 | 0.337
2 | A549 | 0.885 | 1.05 | 0.931 | 0.359 | 0.0624 | 0.234 | 0.217 | 0.172 | 0.121 |  |  |  |  |  |  |  |  | 
3 | A-427 | 0.925 | 1.09 | 1.09 | 0.972 | 0.157 | 0.461 | 0.259 | 0.258 | 0.241 | 0.83 | 0.744 | 0.755 | 0.528 | 0.201 | 0.512 | 0.488 | 0.503 | 0.415
4 | ABC-1 | 1.08 | 1.54 | 1.2 | 0.499 | 0.516 | 0.239 | 0.234 | 0.243 | 0.276 |  |  |  |  |  | 0.814 |  | 0.476 | 0.862
5 | BEN | 0.635 | 0.819 | 0.854 | 0.553 | 0.267 |  | 0.292 | 0.28 | 0.261 | 0.961 | 0.995 | 1.07 | 1.11 | 0.451 | 0.531 | 0.454 | 0.451 | 0.51
6 | CAL-12T |  | 0.691 | 0.759 | 0.618 | 0.207 | 0.715 | 0.497 | 0.539 | 0.558 | 0.367 | 0.288 | 0.428 | 0.167 | 0.11 | 0.0401 | 0.407 | 0.329 | 0.479
7 | COR-L23 | 0.906 | 1.16 | 0.895 | 0.0642 | 0.0567 | 0.492 | 0.383 | 0.408 | 0.294 | 0.565 | 0.739 | 0.577 | 0.0935 | 0.0822 | 0.314 | 0.241 | 0.223 | 0.14
8 | COR-L 105 | 0.348 | 0.377 | 0.386 | 0.324 | 0.289 | 0.535 | 0.42 | 0.479 | 0.418 | 0.451 | 0.458 | 0.416 | 0.35 | 0.328 | 0.401 | 0.409 | 0.404 | 0.398
9 | Calu-6 | 1.08 | 1.12 | 1.13 | 0.135 | 0.116 |  |  |  |  |  |  |  |  |  |  |  |  | 
10 | ChaGo-K-1 |  |  |  |  |  | 0.624 | 0.441 | 0.475 | 0.42 | 0.873 | 0.924 | 0.878 | 0.47 | 0.168 | 1.03 | 0.908 | 0.908 | 0.664
